In US6750246B1, “C-4 carbonate taxanes” (Bristol-Myers Squibb Company, priority 2000, dated 2004):

How the values were obtained:
[1] = test system: A2780 human ovarian tumor xenograft; experiment: In vivo oral antitumor activity vs Sc A2780; conditions: po gavage; for Oral Efficacy vs. Sc A2780 Log Cell Kill: q2d x 5, at optimal or maximum tolerated dose of Table III (mg/kg per administration), log cell kill = (T-C)/(TVDT x 3.32); for Oral Efficacy vs. Sc A2780 (Cures/Treated): q2d x 5, same dose as log cell kill, cure = tumor of 35 mg or less at termination
Description: The experiments were carried out using athymic (“nude”) mice. […] The compound was administered at the dose indicated in Table III, namely, once daily every other day for five treatments (i.e. q2dx5).

[2] = test system: tumors in mice; conditions: AACR 1999 abstract 1905; cited from earlier work
[3] = test system: human or animal models; conditions: cited from earlier work; for Oral activity in human or animal models: prior art
[4] = administered orally; quote from WO98/53811; cited from earlier work
[5] = test system: human tumor xenografts; experiment: Orally administered paclitaxel against human tumor xenografts; conditions: oral; athymic mice or athymic rats

Molecule | Oral Efficacy vs. Sc A2780 Log Cell Kill [1] | Oral Efficacy vs. Sc A2780 (Cures/Treated) [1] | further results
3′-N-Cyclobutyl-4-deacetyl-3′-N-debenzoyl-4-O-methoxycarbonyi-paciitaxel [Id] | 4.1 | 0/8 | 
CC(=O)O[C@H]1C(=O)[C@@]2(C)[C@H]([C@H](OC(=O)c3ccccc3)[C@]34OC(=O)O[C@H]3[C@H](OC(=O)[C@H](O)[C@H](CC(C)C)NC(=O)OC(C)(C)C)C(C)=C1C4(C)C)[C@]1(OC(C)=O)CO[C@@H]1C[C@@H]2O [IDN-5109] |  |  | Oral activity against tumors in mice [2]: oral activity against tumors in mice
COC(=O)O[C@@]12COC1C[C@H](O)[C@@]1(C)C(=O)[C@H](OC(C)=O)C3=C(C)[C@@H](OC(=O)[C@H](O)[C@@H](NC(=O)OC(C)(C)C)C(C)(C)C)C[C@@](O)([C@@H](OC(=O)c4ccccc4)C21)C3(C)C (some centres unmarked) [Ia, 3′-tert-Butyl-3′-N-tert-butyloxycarbonyl-4-deacetyl-3′-dephenyl-3′-N-debenzoyl-4-O-methoxycarbonyl-paclitaxel] | 4.4 | 0/8 | 
COC(=O)OC12COC1CC(O)C1(C)C(=O)C(OC(C)=O)C3=C(C)C(OC(=O)C(O)C(NC(=O)OC(C)(C)C)C(C)C)CC(O)(C(OC(=O)c4ccccc4)C21)C3(C)C (centres unmarked) [Ib, 3′-N-tert-Butyloxycarbonyl-4-deacetyl-3′-dephenyl-3′-N-debenzoyl-3′-isopropyl-4-O-methoxycarbonyl-paclitaxel] | 3.0 | 1/8 | 
COC(=O)OC12COC1CC(O)C1(C)C(=O)C(OC(C)=O)C3=C(C)C(OC(=O)C(O)C(NC(=O)CC(C)(C)C)c4ccccc4)CC(O)(C(OC(=O)c4ccccc4)C21)C3(C)C (centres unmarked) [Ic, 3′-N-Neopentylcarbonyl-4-deacetyl-3′-N-debenzoyl-4-O-methoxycarbonyl-paclitaxel] | 3.8 | 0/8 | 
COC(=O)OC12COC1CC(O)C1(C)C(=O)C(OC(C)=O)C3=C(C)C(OC(=O)C(O)C(NC(=O)OC4CCCCC4)C(C)(C)C)CC(O)(C(OC(=O)c4ccccc4)C21)C3(C)C (centres unmarked) [Ie, 3′-tert-Butyl-3′-N-cyclohexyloxycarbonyl-4-deacetyl-3′-dephenyl-3′-N-debenzoyl-4-O-methoxycarbonyl-paclitaxel] | 1.5 | 0/8 | 
COC(=O)O[C@@]12CO[C@@H]1C[C@H](O)[C@@]1(C)C(=O)[C@H](OC(C)=O)C3=C(C)[C@@H](OC(=O)[C@H](O)[C@@H](NC(=O)CC(C)(C)C)C(C)(C)C)C[C@@](O)([C@@H](OC(=O)c4ccccc4)[C@H]21)C3(C)C [If, 3′-tert-Butyl-4-deacetyl-3′-dephenyl-3′-N-debenzoyl-3′-N-neopentylcarbonyl-4-O-methoxycarbonyl-paclitaxel] | 1.8 | 0/8 | 
COC(=O)O[C@@]12CO[C@@H]1C[C@H](O)[C@@]1(C)C(=O)[C@H](OC(C)=O)C3=C(C)[C@@H](OC(=O)[C@H](O)[C@@H](NC(=O)OC(C)(C)C)c4ccccc4)C[C@@](O)([C@@H](OC(=O)c4ccccc4)[C@H]21)C3(C)C [Ig, 4-Deacetyl-3′-N-debenzoyl-3′-N-tertbutoxycarbonyl 4-O-methoxycarbonyl-paclitaxel] | 0.9 | 0/8 | 
CCCCOC(=O)NC(c1ccccc1)C(O)C(=O)OC1CC2(O)C(OC(=O)c3ccccc3)C3C4(OC(=O)OC)COC4CC(O)C3(C)C(=O)C(OC(C)=O)C(=C1C)C2(C)C (centres unmarked) [Ih, 4-Deacetyl-3′-N-debenzoyl-3′-N-nbutoxycarbonyl-4-O-methoxycarbonyl-paclitaxel] | 1.0 | 1/8 | 
COC(=O)O[C@@]12CO[C@@H]1C[C@H](O)[C@@]1(C)C(=O)[C@H](OC(C)=O)C3=C(C)[C@@H](OC(=O)[C@H](O)[C@@H](NC(=O)C4CCC4)C(C)(C)C)C[C@@](O)([C@@H](OC(=O)c4ccccc4)[C@H]21)C3(C)C [Ij, 3′-N-Debenzoyl-3′-N-cyclobutylcarbonyl-3′-dephenyl-3′-tert-butyl-4-deacetyl-4-methoxycarbonyl Paclitaxel] | 2.1 | 0/8 | 
COC(=O)OC12COC1CC(O)C1(C)C(=O)C(OC(C)=O)C3=C(C)C(OC(=O)C(O)C(NC(=O)c4ccco4)C(C)(C)C)CC(O)(C(OC(=O)c4ccccc4)C21)C3(C)C (centres unmarked) [Ik, 3′-N-Debenzoyl-3′-N-(2-furoyl)-3′-dephenyl-3′-tert-butyl-4-deacetyl-4-methoxycarbonyl Paclitaxel] | 2.2 | 0/8 | 
CC(=O)O[C@@]12CO[C@@H]1C[C@H](O)[C@@]1(C)C(=O)[C@H](O)C3=C(C)[C@@H](OC(=O)[C@H](O)[C@@H](NC(=O)OC(C)(C)C)c4ccccc4)C[C@@](O)([C@@H](OC(=O)c4ccccc4)[C@H]21)C3(C)C [TAXOTERE®, docetaxel] |  |  | Oral activity in human or animal models [3]: no oral activity
CC(=O)O[C@H]1C(=O)[C@@]2(C)[C@H]([C@H](OC(=O)c3ccccc3)[C@]3(O)C[C@H](OC(=O)[C@H](O)[C@@H](NC(=O)c4ccccc4)c4ccccc4)C(C)=C1C3(C)C)[C@]1(OC(C)=O)CO[C@@H]1C[C@@H]2O [paclitaxel] |  |  | Oral absorption [4]: less than 1%; Antitumor activity on oral administration ([3]; oral, up to 160 mg/kg/day, Suffness et al.): no evidence of antitumor activity; Oral activity in human or animal models [3]: no oral activity; Activity of orally administered paclitaxel against human tumor xenografts [5]: unsuccessful
